From article PMC9292235, “Pharmacokinetics and Metabolism of Ziritaxestat (GLPG1690) in Healthy Male Volunteers Following Intravenous and Oral Administration” (Clinical Pharmacology in Drug Development, 2021)
“Also recorded” adds a separate entry of the source.

How the values were obtained:
CYP1A2 = conditions: 0.1 to 30 μM incubated with human hepatocytes; background data in introduction, no reference given; cited from earlier work
[1] = Part 1 absolute bioavailability: plasma PK after oral 600 mg ziritaxestat and 15-minute IV infusion of 100 μg 14C-ziritaxestat microtracer; type: in vivo, human; conditions: for F AUCt (absolute bioavailability) / F AUC∞ (absolute bioavailability): oral 600 mg vs IV 100 μg 14C-ziritaxestat; for F AUCt (absolute bioavailability): dose-normalized AUCt; for F AUC∞ (absolute bioavailability): dose-normalized AUC∞
Description: Part 1 of the study was designed to assess the absolute bioavailability of ziritaxestat. An IV microtracer, a well‐established technique, was used.[21], [22] This design involved a 15‐minute infusion of a subtherapeutic 100‐μg IV ziritaxestat dose labeled with a microtracer (≤1000 nCi) of ^14C radioactivity, dosed at an anticipated time to reach maximum plasma concentration (tmax) of a preceding unlabeled therapeutic (600‐mg) oral dose (administered as three 200‐mg film‐coated tablets). The low‐dose IV formulation means that nonclinical local tolerability and IV toxicology studies can generally be avoided,[21], [22] which can be preferable when developing a single, fit‐for‐purpose IV formulation. Administering the IV microdose at tmax of the unlabeled therapeutic (600‐mg) oral dose of ziritaxestat ensured that the PK of the microdose remained representative of the therapeutic dose.
Given the low (microgram) levels of ziritaxestat expected in plasma, liquid chromatography–accelerated mass spectrometry (LC‐AMS) was used to quantify levels of ^14C‐ziritaxestat, whereas accelerated mass spectrometry (AMS) was used to quantify total radioactivity following the IV dose, achieving a lower limit of quantification (LLOQ) of 0.110 ng eq/mL and 0.0069 ng eq/mL, respectively. Concentrations of unlabeled parent in plasma were measured using liquid chromatography with tandem mass spectrometry (LC‐MS/MS), with an LLOQ of 1.00 ng/mL.
Subjects were admitted to the clinic on day –1 (the evening before dosing) and remained onsite until 72 hours after dosing. On the morning of day 1, 30 minutes after the start of a standard breakfast, subjects received a single oral dose of 600‐mg ziritaxestat, followed 3.25 hours later by a 15‐minute IV infusion of 100 μg of ^14C‐ziritaxestat. Plasma samples for ziritaxestat concentrations were collected before dosing and at 0.25, 0.5, 1, 1.5, 2, 3, 3.25, 4, 5, 6, 8, 10, 12, 24, 48, and 72 hours after the oral dose. In addition, plasma samples for ^14C‐ziritaxestat, total radioactivity, and metabolite profiling were collected at 3.25, 3.33, 3.5, 3.75, 4, 4.25, 4.75, 5.25, 6, 7, 8, 10, 12, 24, 48, and 72 hours after the oral dose.
(§1) Concentrations of ziritaxestat in human lithium heparin plasma samples were determined for both study parts by using an LC‐MS/MS method validated according to the requirements of the US Food and Drug Administration's Guidance for Industry and the European Medicines Agency's guidance on bioanalytical methods. The method involved isolating ziritaxestat and ziritaxestat‐d8 (internal standard) from 20 μL of human lithium heparin plasma by solid‐phase extraction performed on a CUBCX1 100‐mg 1‐mL cartridge (Screening Devices, Amersfoort, Netherlands). The extract sample was then evaporated to dryness under a stream of nitrogen at +50°C. The residue was reconstituted with 0.3 mL of a mixture of 25% acetonitrile in purified water containing 0.01% of ammonium hydroxide. Ten microliters of the clear supernatant were injected into the high‐performance liquid chromatography system (Shimadzu, Kyoto, Japan), operating in isocratic elution mode. Chromatographic separation was performed on an XBridge C18 column (100 × 4.6 mm, 3.5 μm; Waters Corp., Milford, Massachusetts). The aqueous mobile phase consisted of a mixture of 46.75% acetonitrile in purified water containing 0.02% of ammonium hydroxide. An API 4000 LC‐MS/MS system (SCIEX, Toronto, Canada) equipped with a TurboIonSpray probe operating in multiple‐reaction monitoring mode in positive mode was used for quantification. The precursor‐to‐product ion pairs at the mass‐to‐charge ratio were 589 to 256 and 597 to 264 for ziritaxestat and its internal standard, respectively.
Total radioactivity plasma concentrations for part 1 were determined using AMS analysis on a 1‐MV multielement accelerated mass spectrometer, model 4110 Bo (High Voltage Engineering Europa, Amersfoort, the Netherlands). […]

CYP2C8 = conditions: background data in introduction, no reference given, cited from earlier work
[2] = Part 2: plasma and whole blood PK after a single oral 600-mg dose of 14C-ziritaxestat; type: in vivo, human; conditions: ziritaxestat in plasma, single oral 600 mg 14C-ziritaxestat
Description: Part 2 of the study assessed the mass balance, routes of elimination, and metabolite profile of ziritaxestat following a single, oral 600‐mg dose (administered as two 300‐mg active pharmaceutical ingredients‐in‐capsule) of ^14C‐ziritaxestat.
Subjects were admitted on the evening before dosing (day –1 of part 2), allowing a minimum 7‐day washout in oral drug administration between parts 1 and 2. On the morning of day 1, subjects received a single oral dose of ^14C‐ziritaxestat, equivalent to 600 mg of ziritaxestat. […] Subjects stayed in the clinical study center no longer than day 10 (216 hours after dosing).
(§2) Whole blood and plasma samples for total radioactivity and plasma sample concentrations of ziritaxestat were collected before dosing and at 0, 0.25, 0.5, 1, 1.5, 2, 3, 4, 6, 8, 10, 24, 48, 72, 96, 120, 144, 168, 192, and 216 hours after dosing. Plasma samples for metabolite identification and quantification were collected before dosing and at 1, 3, 6, 24, 48, 72, 96, and 144 hours after dosing. Urine and fecal samples for total radioactivity, metabolite identification, and quantification were collected before dosing through to 216 hours after dosing. Structural identification was attempted on any radioactive component that represented ≥10% of the circulating radioactivity in plasma or that accounted for >10% of the dose in ≥1 fecal and urine samples.
Total radioactivity was measured via liquid scintillation counting, achieving an LLOQ of 306 ng eq/mL (plasma), 216 ng eq/mL (whole blood), 17 ng eq/g (urine), and 161 ng eq/g (feces). Concentrations of parent in plasma were measured using LC‐MS/MS, with an LLOQ of 1.00 ng/mL.
as §1
PK analysis was performed using standard noncompartmental methods (Phoenix WinNonlin version 9.4; Pharsight, Certara, Princeton, New Jersey). […] In part 2, the following mass balance parameters were determined: cumulative amount of total radioactivity excreted in urine up to t, cumulative amount of total radioactivity excreted in feces up to t, amount of total radioactivity excreted in urine as a percentage of administered radioactivity, and amount of total radioactivity excreted in feces as a percentage of administered radioactivity. AUC was calculated by the linear up‐logarithmic down‐trapezoid rule, CL was calculated as dose/AUC, Vd(area) was calculated as CL/λz, and F was calculated as dose‐normalized ziritaxestat oral AUC/^14C‐ziritaxestat IV AUC.

[3] = Estimation of oral bioavailability fractions (fa, fg, fh); type: in vivo, human
Description: Contribution to clearance from nonhepatic routes was assumed to be minimal. fg was estimated assuming Fg=F/Fa/Fh .

CYP3A4/5 = conditions: human liver microsomes and probe substrates; weak inhibition; background data in introduction, no reference given; read-out: half maximal inhibitory concentration; cited from earlier work
CYP3A4 [4] = conditions: human recombinant CYP, background data in introduction, no reference given, cited from earlier work
[5] = Metabolite profiling and identification in plasma, urine and feces; type: in vivo, human; conditions: for Mean Feces Region of Interest: components of one region share its value
Experimental: as §2

[6] = Safety assessments (AEs, laboratory tests, vital signs, ECG); type: in vivo, human; conditions: parts 1 and 2
Experimental: Safety assessments included adverse events (AEs), clinical laboratory tests (clinical chemistry, hematology, urinalysis), vital signs, 12‐lead electrocardiograms (ECGs), and physical examinations. AEs were recorded from the first dose until study discharge, and at the follow‐up call. Any adverse experiences recorded between the time of informed consent and the first dose were recorded with the medical history. AEs and medications were coded using the Medical Dictionary for Regulatory Activities version 21.1.

CYP3A4 [7] = conditions: 0.1 to 30 μM incubated with human hepatocytes; background data in introduction, no reference given; cited from earlier work
[8] = human, ziritaxestat in plasma, oral 600 mg, n = 6, mean (SD)
[9] = mean (SD), listed as ziritaxestat
[10] = feces, single oral 600 mg 14C-ziritaxestat

Compound: CCc1nc2c(C)cc(N3CCN(CC(=O)N4CC(O)C4)CC3)cn2c1N(C)c1nc(-c2ccc(F)cc2)c(C#N)s1 [Ziritaxestat]
- CYP1A2 messenger RNA expression (induction potential) (CYP1A2): Increases in messenger RNA expression
- AUC(0-inf) [1, 8]: 40000 ng·h/mL
- AUC(0-t) [1, 8]: 40000 ng·h/mL
- Cmax [1, 8]: 8400 ng/mL
- half-life [1, 8]: 420 min
- Tmax ([1]; human, ziritaxestat in plasma, oral 600 mg, n = 6, median (range)): 3.25 h
- F AUCt (absolute bioavailability) ([1]; mean (SD)): 54.4 (5.2) %
- F AUCt (absolute bioavailability) [1, 9]: 54%
- F AUC∞ (absolute bioavailability) ([1]; mean (SD)): 51.1 (4.8) %
- F AUC∞ (absolute bioavailability) [1, 9]: 51%
- CL/F ([1]; ziritaxestat in plasma, oral 600 mg, n = 6, mean (SD)): 16.3 (4.6) L/h
- half maximal inhibitory concentration fold shift (CYP2C8; CYP2C8-mediated metabolism, preincubation with ziritaxestat in the absence and presence of NADP, time-dependent inhibition): 2.49
- IC50 (CYP2C8; human liver microsomes and probe substrates, weak inhibition, read-out: half maximal inhibitory concentration): 2100 nM
- AUC(0-inf) ([2]; human, n = 5, mean (SD)): 50500 ng·h/mL
- half-life ([2]; human, n = 5, mean (SD)): 636 min
- AUC(0-t) ([2]; human, n = 6, mean (SD)): 49100 ng·h/mL
- Cmax ([2]; human, n = 6, mean (SD)): 10700 ng/mL
- AUC ([2]; human, n = 6, mean (SD), read-out: AUC24): 47900 ng·h/mL
- Tmax ([2]; human, n = 6, median (range)): 1.75 h
- CL/F ([2]; n = 5, mean (SD)): 13.2 (4.6) [n = 5] ^c L/h
- fg (fraction of drug surviving gut metabolism) ([3]; Fg = F/Fa/Fh): 69%
- fh (fraction of drug surviving hepatic elimination) ([3]; Fh = 1 - Eh, Eh = ClIV/Qh, Qh 1450 mL/min): 91%
- Hepatic extraction ratio (first-pass loss) ([3]; human, in vivo): 9%
- frem (fraction of drug remaining to be eliminated) ([3]; human, in vivo): 14%
- IC50 (CYP3A4/5): 3.7 µM
- Enzyme primarily responsible for metabolism (CYP3A4 [4]): primarily metabolized by CYP3A4
- Contribution to metabolism from other phase 1 enzymes (maximum) (CYP3A4 [4]; enzymes other than CYP3A4): ≤ 2.1%
- Parent as share of total radioactivity (drug-related material) recovered in feces ([5]; feces, oral 600 mg 14C-ziritaxestat): 17.6%
- Mean Feces Region of Interest [5, 10]: 17.6%
- Share of circulating radioactivity in plasma ([5]; plasma, metabolite profile / mass spectrometry analysis, oral 600 mg 14C-ziritaxestat): 76%
- Mean Plasma Region of Interest ([5]; plasma, single oral 600 mg 14C-ziritaxestat): 76.2
- Effects on laboratory, vital signs, or ECG parameters [6]: no clinically meaningful effects
- Intensity of TEAEs [6]: mild
- Relation of TEAEs to treatment as assessed by the investigator [6]: not considered to be related to the study drug; also recorded: not treatment related
- Serious AEs or AEs leading to discontinuation or interruption of dosing ([6]; healthy male subjects): no serious AEs or AEs leading to discontinuation or interruption of dosing
- Number of treatment-emergent AEs (TEAEs) ([6]; reported in 5 subjects): 7
- CYP3A4 messenger RNA expression (induction potential) (CYP3A4 [7]): Increases in messenger RNA expression

Compound: CCc1nc2c(C)cc(N3CCN(CC(=O)O)CC3)cn2c1N(C)c1nc(-c2ccc(F)cc2)c(C#N)s1 [M533]
- Mean Feces Region of Interest [5, 10]: 25.3%

Compound: CCc1nc2c(C)cc(N3CCN(CC(=O)NCC(=O)O)CC3)cn2c1N(C)c1nc(-c2ccc(F)cc2)c(C#N)s1 [M590]
- Mean Feces Region of Interest [5, 10]: 25.3%
